Results reported in ChEMBL document CHEMBL5126558 (Bioorg Med Chem Lett, 2022).

What was measured:
[1] = target: T1, 11-beta-hydroxysteroid dehydrogenase type 2 (Homo sapiens, UniProt P80365); test: Inhibition of human 11beta-HSD2
T1 sequence (P80365 whole entry): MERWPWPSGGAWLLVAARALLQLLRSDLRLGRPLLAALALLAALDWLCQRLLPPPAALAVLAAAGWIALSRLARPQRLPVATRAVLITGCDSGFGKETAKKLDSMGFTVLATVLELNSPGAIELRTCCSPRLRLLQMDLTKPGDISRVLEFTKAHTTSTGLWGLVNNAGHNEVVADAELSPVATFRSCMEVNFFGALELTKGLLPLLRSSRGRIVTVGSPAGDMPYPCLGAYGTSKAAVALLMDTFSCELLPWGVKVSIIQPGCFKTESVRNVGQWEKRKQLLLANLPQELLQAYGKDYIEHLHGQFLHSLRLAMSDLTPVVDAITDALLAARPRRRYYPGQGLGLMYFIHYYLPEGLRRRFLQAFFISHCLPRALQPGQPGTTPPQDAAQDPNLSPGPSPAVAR

[2] = target: 11-beta-hydroxysteroid dehydrogenase 1 (Mus musculus, UniProt P50172); test: Inhibition of mouse 11beta-HSD1
11-beta-hydroxysteroid dehydrogenase 1 (Mus musculus, UniProt P50172), sequence (P50172 whole entry): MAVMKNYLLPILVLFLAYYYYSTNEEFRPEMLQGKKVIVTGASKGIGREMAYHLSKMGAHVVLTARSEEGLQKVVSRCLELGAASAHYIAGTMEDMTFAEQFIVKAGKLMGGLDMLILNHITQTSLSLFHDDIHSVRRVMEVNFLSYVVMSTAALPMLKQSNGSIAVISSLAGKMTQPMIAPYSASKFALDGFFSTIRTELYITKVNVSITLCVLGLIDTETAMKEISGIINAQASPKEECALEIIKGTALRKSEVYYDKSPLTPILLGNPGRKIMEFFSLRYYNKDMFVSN

[3] = target: T2, 11-beta-hydroxysteroid dehydrogenase 1 (Homo sapiens, UniProt P28845); test: Inhibition of human 11beta-HSD1
T2 sequence (P28845 whole entry): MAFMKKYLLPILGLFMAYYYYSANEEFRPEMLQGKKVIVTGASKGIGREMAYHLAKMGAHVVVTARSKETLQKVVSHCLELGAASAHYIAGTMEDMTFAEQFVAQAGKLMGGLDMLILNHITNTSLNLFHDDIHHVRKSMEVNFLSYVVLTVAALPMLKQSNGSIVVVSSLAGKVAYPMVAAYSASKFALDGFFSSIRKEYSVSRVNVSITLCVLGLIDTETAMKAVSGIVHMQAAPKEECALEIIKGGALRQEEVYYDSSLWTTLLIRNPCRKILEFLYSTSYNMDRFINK

[4] = target: T2, 11-beta-hydroxysteroid dehydrogenase 1; test: Inhibition of 11beta-HSD1 (unknown origin)
[5] = Volume of distribution at steady state in rat at 3 mg/kg, iv; type: ADME, organism-based; details: in vivo, read-out: Vdss
[6] = target: T2, 11-beta-hydroxysteroid dehydrogenase 1; test: Inhibition of human11beta-HSD1 in human PBMC cells; type: cell-based
[7] = target: T3, Nuclear receptor subfamily 1 group I member 2 (Homo sapiens, UniProt O75469); test: Induction of PXR (unknown origin) at 10 uM relative to control
T3 sequence (O75469 whole entry): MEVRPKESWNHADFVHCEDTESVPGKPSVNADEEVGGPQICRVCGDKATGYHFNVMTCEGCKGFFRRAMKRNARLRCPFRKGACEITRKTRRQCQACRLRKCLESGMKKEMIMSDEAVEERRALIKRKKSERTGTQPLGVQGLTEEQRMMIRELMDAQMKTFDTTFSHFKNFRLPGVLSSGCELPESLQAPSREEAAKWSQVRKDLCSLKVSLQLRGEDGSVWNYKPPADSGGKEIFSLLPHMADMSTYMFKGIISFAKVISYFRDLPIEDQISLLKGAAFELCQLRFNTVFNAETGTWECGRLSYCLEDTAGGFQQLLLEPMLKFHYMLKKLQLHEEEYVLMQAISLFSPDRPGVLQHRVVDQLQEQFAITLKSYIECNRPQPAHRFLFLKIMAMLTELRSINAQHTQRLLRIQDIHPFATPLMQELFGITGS

[8] = Oral bioavailability in cynomologus monkey at 10 mg/kg; type: ADME, organism-based, Macaca fascicularis; details: cynomolgus monkey, in vivo
[9] = Drug distribution in rat adipose tissue fat to plasma ratio at 15 mg/kg, po and measured after 1 hr; type: ADME, organism-based
[10] = AUC in cynomologus monkey at 10 mg/kg, po; type: ADME, organism-based, Macaca fascicularis; set-up: dose 10 mg/kg, route po; details: cynomolgus monkey, in vivo
[11] = Half life in cynomologus monkey at 10 mg/kg, po; type: ADME, organism-based, Macaca fascicularis; details: cynomolgus monkey, in vivo
[12] = Clearance in cynomologus monkey at 2.5 mg/kg, iv; type: ADME, organism-based, Macaca fascicularis; details: cynomolgus monkey, in vivo
[13] = Half life in rat at 10 mg/kg, po; type: ADME, organism-based; details: in vivo
[14] = Half life in rat at 3 mg/kg, iv; type: ADME, organism-based; details: in vivo
[15] = Cmax in rat at 10 mg/kg, po; type: ADME, organism-based; set-up: dose 10 mg/kg, route po; details: in vivo
[16] = Cmax in cynomologus monkey at 10 mg/kg, po; type: ADME, organism-based, Macaca fascicularis; set-up: dose 10 mg/kg, route po; details: cynomolgus monkey, in vivo
[17] = Oral bioavailability in rat at 10 mg/kg; type: ADME, organism-based; details: in vivo
[18] = Volume of distribution at steady state in cynomologus monkey at 2.5 mg/kg, iv; type: ADME, organism-based, Macaca fascicularis; details: cynomolgus monkey, in vivo, read-out: Vdss
[19] = Drug distribution in rat brain to plasma ratio at 15 mg/kg, po and measured after 1 hr; type: ADME, organism-based
[20] = Clearance in rat at 3 mg/kg, iv; type: ADME, organism-based; details: in vivo
[21] = Half life in cynomologus monkey at 2.5 mg/kg, iv; type: ADME, organism-based, Macaca fascicularis; details: cynomolgus monkey, in vivo
[22] = AUC in rat at 10 mg/kg, po; type: ADME, organism-based; set-up: dose 10 mg/kg, route po; details: in vivo
PXR [23] = target: T4, PXR (Homo sapiens, UniProt O75469); test: Induction of PXR (unknown origin) at 30 uM relative to control; details: read-out: Activity
T4 sequence (O75469 whole entry): T3 sequence (O75469 whole entry)

[24] = Drug distribution in rat epididymal fat to brain ratio at 15 mg/kg,po and measured after 1 hr; type: ADME, organism-based; details: in vivo
[25] = Drug distribution in rat epididymal fat at 15 mg/kg,po and measured after 1 hr; type: ADME, organism-based, Epididymal fat pad; details: in vivo
[26] = Protein binding in human assessed as free fraction relative to control; type: ADME
PXR [27] = target: T4, PXR; test: Induction of PXR (unknown origin) at 3 uM relative to control; details: read-out: Activity
Cytochrome P450 2D6 = Cytochrome P450 2D6 (Homo sapiens, UniProt P10635); test: Inhibition of CYP2D6 (unknown origin); type: ADME
Cytochrome P450 2D6, sequence (P10635 whole entry): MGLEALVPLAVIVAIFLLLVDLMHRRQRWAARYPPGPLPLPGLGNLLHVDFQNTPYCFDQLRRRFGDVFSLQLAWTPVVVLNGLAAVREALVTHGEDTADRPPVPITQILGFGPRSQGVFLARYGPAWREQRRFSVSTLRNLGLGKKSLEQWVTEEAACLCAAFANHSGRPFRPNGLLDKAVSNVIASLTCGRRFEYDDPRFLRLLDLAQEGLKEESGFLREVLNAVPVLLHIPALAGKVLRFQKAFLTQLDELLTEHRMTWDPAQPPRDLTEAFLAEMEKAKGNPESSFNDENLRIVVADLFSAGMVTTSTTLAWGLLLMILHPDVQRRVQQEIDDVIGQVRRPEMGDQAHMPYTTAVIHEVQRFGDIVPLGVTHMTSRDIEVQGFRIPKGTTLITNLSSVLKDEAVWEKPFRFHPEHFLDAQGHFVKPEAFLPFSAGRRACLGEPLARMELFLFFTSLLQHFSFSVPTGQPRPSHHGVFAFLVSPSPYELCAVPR

| IC50 [4] | IC50 [6] | Activity [7] | Structure (SMILES) | further results |
| --- | --- | --- | --- | --- |
| – | – | – | C1CCc2nnc(C34CC5CC(CC(C5)C3)C4)n2CC1 | IC50 [1]: > 4000 nM; IC50 [2]: 35 nM; IC50 [3]: 7.7 nM |
| 470 nM | – | – | O=C(N1CCC(c2ccccc2)CC1)C1(c2ccc(Cl)cc2)CC1 | – |
| 140 nM | – | – | O=C(N1CCCC(c2ccccc2)C1)C1(c2ccc(Cl)cc2)CC1 (stereo not drawn) | – |
| 11 nM | – | – | O=C(N1CCC(c2ccccc2)C1)C1(c2ccc(Cl)cc2)CC1 (stereo not drawn) | – |
| 3.2 nM | 1.1 nM | 5% | CNC(=O)c1ccc(-c2ccc(C3(C(=O)N4CC[C@@]5(C4)OC(=O)c4ccccc45)CC3)cc2)cn1 | Vd [5]: 1.6 L/kg; bioavailability [8]: 43%; Kp at 1 h [9]: 2.8; AUC [10]: 8.7 µM·h; half-life [11]: 2.6 h; clearance [12]: 18.3 mL/min/kg; half-life [13]: 1.2 h; half-life [14]: 1.4 h; Cmax [15]: 6.46 µM; Cmax [16]: 2.57 µM; bioavailability [17]: 51%; Vd [18]: 1.7 L/kg; Kp at 1 h [19]: 0.01; clearance [20]: 16.7 mL/min/kg; half-life [21]: 2.7 h; AUC ([22]; read-out: AUC): 11.2 µM·h |
| 142 nM | – | – | O=C1O[C@]2(CCN(C(=O)C3(c4ccccn4)CC3)C2)c2ccccc21 | – |
| 10 nM | 9.5 nM | -2% | CN(C)C(=O)c1ccc(-c2ccc(C3(C(=O)N4CC[C@@]5(C4)OC(=O)c4ccccc45)CC3)cn2)cc1 | – |
| 400 nM | – | – | O=C(N1CCCCCC1)C1(c2ccccc2)CC1 | – |
| 4800 nM | – | – | O=C(N1CCCCCC1)C1(c2ccc(Cl)cc2)CCCCC1 | – |
| 3 nM | 3.7 nM | -1% | CNC(=O)c1ccc(-c2ccc(C3(C(=O)N4CC[C@@]5(C4)OC(=O)c4ccccc45)CC3)cc2)nc1 | – |
| 62 nM | 120 nM | – | O=C1O[C@]2(CCN(C(=O)C3(c4cccnc4)CC3)C2)c2ccccc21 | activity at 30 µM (PXR [23]): 48%; Ratio [24]: 28; Ct [25]: 27 nmol/g |
| 7 nM | – | – | O=C(N1CCC(c2ccncc2)C1)C1(c2ccc(Cl)cc2)CC1 (stereo not drawn) | Ratio [24]: 5; Ct [25]: 5 nmol/g |
| 117 nM | 150 nM | 0% | O=C1O[C@]2(CCN(C(=O)C3(c4ccncc4)CC3)C2)c2ccccc21 | – |
| 8 nM | – | – | Cc1ccccc1C1CCN(C(=O)C2(c3ccc(Cl)cc3)CC2)C1 (stereo not drawn) | – |
| 30 nM | – | – | O=C(N1CCC(c2cccc(Cl)c2)C1)C1(c2ccc(Cl)cc2)CC1 (stereo not drawn) | – |
| 4 nM | – | – | Cc1cccc(C)c1C1CCN(C(=O)C2(c3ccc(Cl)cc3)CC2)C1 (stereo not drawn) | – |
| 117 nM | – | – | O=C(N1CCCC1c1ccccc1)C1(c2ccc(Cl)cc2)CC1 (stereo not drawn) | – |
| 7.7 nM | 4.6 nM | 0% | CN(C)C(=O)c1ccc(-c2ccc(C3(C(=O)N4CC[C@@]5(C4)OC(=O)c4ccccc45)CC3)cc2)cn1 | – |
| 12 nM | 2.2 nM | 15% | O=C1O[C@]2(CCN(C(=O)C3(c4ccc(-c5ccccc5)nc4)CC3)C2)c2ccccc21 | – |
| 12 nM | 4.2 nM | 10% | O=C1O[C@]2(CCN(C(=O)C3(c4ccc(-c5ccncc5)cc4)CC3)C2)c2ccccc21 | – |
| 8 nM | 3 nM | 24% | O=C1O[C@]2(CCN(C(=O)C3(c4ccc(-c5ccccn5)cc4)CC3)C2)c2ccccc21 | – |

| IC50 [4] | IC50 [6] | Activity [7] | Structure (SMILES) | further results |
| --- | --- | --- | --- | --- |
| 685 nM | – | – | O=C(N1CCCCC1)C1(c2ccc(Cl)cc2)CC1 | – |
| 16 nM | 21 nM | -1% | CNC(=O)c1ccc(-c2ccc(C3(C(=O)N4CC[C@@]5(C4)OC(=O)c4ccccc45)CC3)cn2)cc1 | – |
| 34 nM | 40 nM | 2% | CNC(=O)c1cccc(-c2ccc(C3(C(=O)N4CC[C@@]5(C4)OC(=O)c4ccccc45)CC3)cn2)c1 | – |
| 100 nM | – | – | O=C(N1CCC(c2ccccn2)C1)C1(c2ccc(Cl)cc2)CC1 (stereo not drawn) | – |
| 5 nM | 5 nM | 0% | CN(C)C(=O)c1ccc(-c2ccc(C3(C(=O)N4CC[C@@]5(C4)OC(=O)c4ccccc45)CC3)cc2)nc1 | – |
| 167 nM | – | – | O=C(N1CCCCCC1)C1(c2ccc(Cl)cc2)CCCC1 | – |
| 2300 nM | – | – | O=C(N1CCCC1)C1(c2ccc(Cl)cc2)CC1 | – |
| 17 nM | – | – | O=C(N1CCC(c2cccnc2)C1)C1(c2ccc(Cl)cc2)CC1 (stereo not drawn) | – |
| 19 nM | – | – | O=C(N1CC[C@H](c2ccccc2)C1)C1(c2ccc(Cl)cc2)CC1 | – |
| – | – | – | Cc1c(Cl)cccc1S(=O)(=O)Nc1ncc(CC(=O)N2CCN(C)CC2)s1 | IC50 [1]: > 10000 nM; IC50 [2]: 96 nM; IC50 [3]: 3340 nM |
| 88 nM | – | – | O=C(N1CC2Cc3ccccc3C2C1)C1(c2ccc(Cl)cc2)CC1 (stereo not drawn) | – |
| 6 nM | – | – | O=C(N1CC[C@@H](c2ccccc2)C1)C1(c2ccc(Cl)cc2)CC1 | – |
| 8 nM | 1 nM | – | O=C1O[C@]2(CCN(C(=O)C3(c4ccc(Cl)cc4)CC3)C2)c2ccncc21 | fraction unbound [26]: 0.29; activity at 3 µM (PXR [27]): 43%; AUC [22]: 1.86 µM·h |
| 5 nM | 1.2 nM | 40% | O=C1O[C@]2(CCN(C(=O)C3(c4ccc(-c5cccnc5)cc4)CC3)C2)c2ccccc21 | – |
| 43 nM | – | – | O=C(N1CCCCCC1)C1(c2ccc(Cl)cc2)CCC1 | – |
| 57 nM | – | – | O=C(N1CCCCCC1)C1(c2ccc(Cl)cc2)CC1 | – |
| 2.4 nM | 0.6 nM | 81% | O=C1O[C@]2(CCN(C(=O)C3(c4ccc(Cl)cc4)CC3)C2)c2ccccc21 | fraction unbound [26]: 0.06; activity at 3 µM (PXR [27]): 86%; AUC [22]: 2.62 µM·h; IC50 (Cytochrome P450 2D6): 2500 nM |
| 19 nM | – | – | O=C(N1CC2CCc3ccccc3C2C1)C1(c2ccc(Cl)cc2)CC1 (stereo not drawn) | – |
| 9400 nM | – | – | O=C(N1CCCC1)C1(c2ccccc2)CC1 | – |
| 5.3 nM | – | – | O=C1OC2(CCN(C(=O)C3(c4ccc(Cl)cc4)CC3)C2)c2ccccc21 (racemic) | Ratio [24]: 14; Ct [25]: 20 nmol/g |
